This passage reports IC50 and inhibition results from patent US10208066B2, “Imidazopyridazine compounds and their use” (HUTCHISON MEDIPHARMA LIMITED, priority 2014, dated 2019).

Usually IC50 stands for the concentration that gives 50% inhibition. As usually defined, the inhibition is the drop in the measured response relative to a control, in per cent.

Like-named read-outs stand apart in the source and are kept apart here.

One experiment deals with PI3K-α (p110α/p85α) (Homo sapiens (Human), UniProt P42336). Kind of experiment: Transcreener KINASE Assay, fluorescent determination of PI3K enzyme activity. Type of experiment: biochemical. The protocol: Inhibition rates were calculated as follow: IH %=(ADP amount under 2% DMSO well−ADP amount under test compound well)/ADP amount under 2% DMSO well×100%.
A further experiment has as its target PI3K-β (Homo sapiens, UniProt P42338). Described as above. Type of experiment: biochemical. Particulars: for inhibition at 1 µM: read-out: PI3K-β IH % (inhibition rate).
The target in a further experiment is PI3K-δ (p110δ/p85α) (Homo sapiens (Human), UniProt O00329). The description is as above. Type of experiment: biochemical. Particulars: for inhibition at 1 µM: read-out: PI3K-δ IH % (inhibition rate).
Another experiment deals with PI3K-γ (p110γ) (Homo sapiens (Human), UniProt P48736). Described as above. Type of experiment: biochemical. Particulars: for inhibition at 1 µM: read-out: PI3K-γ IH % (inhibition rate).
In experiment [1] the test system is PI3Kδ signaling in basophils. The experiment can be described thus: Inhibition of PI3Kδ signaling in basophils from human whole blood. As to conditions: read-out: IC50, inhibition of PI3Kδ signaling in basophils. Type of experiment: cell-based.
Description: Methods • 1) Heparinized human whole blood was mixed and pipetted into the 96 well v-bottom plate, 100 μL per well. • 2) 10 μL of stimulation buffer (1 mg/mL stock, final concentration of Recombinant human IL-3: 20 ng/mL) was added to the whole blood samples of each well and vortex gently. […] Vortex all the wells once more and incubate for 20 min at 37° C. • 5) Labeling with staining antibody: Degranulation was stopped by incubating the samples on ice for 5 min. 6 μL of staining antibody mixture (anti-CD63-FITC and anti-IgE-PE) was added into each well. Vortex and incubate the wells for 20 min in an ice bath, covered to prevent exposure to light. • 6) The whole blood samples were lysed with 300 uL RBC lysis (pre-warmed to room temperature, 20 to 25° C.). Vortex and incubate the samples for 15 min at room temperature. Spin down cells (5 min, 250×g, 4° C.). The supernatant was aspirated leaving approximately 100 μL in each well. • 7) The blood samples were lysed once more as step 6). • 8) Washing: The samples are washed once with 0.5 mL of washing solution. The plate was centrifuged (5 min, 250×g, 4° C.). The supernatant was aspirated leaving approximately 100 μL in each well. The sample in each well was washed and centrifuged once more as above. • 9) 200 μL of fixing solution (1% papraledehyde in 1% BSA/PBS) was added into each well.
(§1) Data was analyzed and IC50 values were generated using the add-in software for Microsoft Excel, Xlfit™ (version 5.3).
Experiment [2] has as its system AKT phosphorylation (p-AKT Ser473) in Ramos cells. Kind of experiment: Inhibition of AKT phosphorylation in Ramos cell line (anti-IgM stimulated). Type of experiment: cell-based. As to conditions: Homo sapiens, read-out: IC50, inhibition of AKT phosphorylation.
Description: 6×10^4/mL Ramos cells (ATCC, CRL-1596; cells were cultured in RPMI1640 media with 10% FBS) were seeded into a 96-well plate (Beckman Dickinson, No. 356692) at 80 uL/well, 4,800 cells/well. After incubation for 3 hr at 37° C. under 5% CO2, Ramos cells were treated with 10 uL/well various concentrations of test compound (final concentrations of the test compound: 1 uM, 0.3 uM, 0.1 uM, 0.037 uM, 0.012 uM, 0.0041 uM, 0.0014 uM and 0.0005 uM) or 0.3% DMSO for 30 min, and then were stimulated with 10 uL/well 1 ug/ml Anti-IgM (Jackson Immunoresearch, 709-006-073) for 15-20 min. • 1) Cells were fixed with 100 μL of 4% pre-warmed Paraformaldehyde (2% final concentration), and incubated for 45 min at room temperature. • 2) The paraformaldehyde solution was removed. 100 μL of ice-cold methanol was added into each well and the plate was left at 4° C. for 30 min. • 3) The cells were washed for three times with 160 μL PBS. • 4) 40 μL 1:350 dilution of Rabbit anti-p-AKT(Ser^473) antibody (Cell Signaling Technology, 4060L) in antibody dilution buffer (1% BSA, in PBS) were added into each well. The plate was inculpated overnight at 4° C. • 5) The cells were washed for 3 times with 160 uL PBS. • 6) 45 μL of Goat anti-rabbit IgG Alexa488 antibody (Invitrogen, A11034) at a 1:1,000 dilution in antibody dilution buffer (1% BSA, in PBS) were added into each well. The plate was covered with foil to keep out of light and was incubated for 90 min at room temperature. • 7) The cells were washed for 3 times with 160 uL PBS. • 8) 50 μL of 1.5 μM Propidium Iodide (Sigma: P4170) solution was added into each well to determine cell number (1.5 mM Propidium iodide stock was diluted with 1:1,000 in PBS, and the final concentration was 1.5 μM). • 9) The plate was incubated at room temperature for 30 min and then was sealed with a cover-seal. • 10) The plate was loaded into the Acumen Explorer and scan with the appropriate instrument settings.
as §1
Setting [3] is: human whole blood, anti-human IgE stimulation, CD63.
The mark [4] stands for this setting: Ramos cells, anti-IgM stimulation.
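Throughout, for PI3K-β IH % (inhibition rate): recombinant PI3K enzyme reaction, 80 min at room temperature, ADP formed detected by far-red competitive fluorescence polarization immunoassay, inhibition relative to ADP in 2% DMSO control wells.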
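Throughout, for PI3K-γ IH % (inhibition rate): ADP produced by p110γ kinase reaction, 80 min at room temperature, detected by far-red fluorescence polarization immunoassay, inhibition relative to 2% DMSO control wells.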
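Throughout, for PI3K-δ IH % (inhibition rate): ADP formed by the kinase detected via far-red competitive fluorescence polarization immunoassay after 80 min room-temperature reaction, inhibition relative to 2% DMSO wells.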

Chain of PI3K-β (P42338 whole entry, looked up): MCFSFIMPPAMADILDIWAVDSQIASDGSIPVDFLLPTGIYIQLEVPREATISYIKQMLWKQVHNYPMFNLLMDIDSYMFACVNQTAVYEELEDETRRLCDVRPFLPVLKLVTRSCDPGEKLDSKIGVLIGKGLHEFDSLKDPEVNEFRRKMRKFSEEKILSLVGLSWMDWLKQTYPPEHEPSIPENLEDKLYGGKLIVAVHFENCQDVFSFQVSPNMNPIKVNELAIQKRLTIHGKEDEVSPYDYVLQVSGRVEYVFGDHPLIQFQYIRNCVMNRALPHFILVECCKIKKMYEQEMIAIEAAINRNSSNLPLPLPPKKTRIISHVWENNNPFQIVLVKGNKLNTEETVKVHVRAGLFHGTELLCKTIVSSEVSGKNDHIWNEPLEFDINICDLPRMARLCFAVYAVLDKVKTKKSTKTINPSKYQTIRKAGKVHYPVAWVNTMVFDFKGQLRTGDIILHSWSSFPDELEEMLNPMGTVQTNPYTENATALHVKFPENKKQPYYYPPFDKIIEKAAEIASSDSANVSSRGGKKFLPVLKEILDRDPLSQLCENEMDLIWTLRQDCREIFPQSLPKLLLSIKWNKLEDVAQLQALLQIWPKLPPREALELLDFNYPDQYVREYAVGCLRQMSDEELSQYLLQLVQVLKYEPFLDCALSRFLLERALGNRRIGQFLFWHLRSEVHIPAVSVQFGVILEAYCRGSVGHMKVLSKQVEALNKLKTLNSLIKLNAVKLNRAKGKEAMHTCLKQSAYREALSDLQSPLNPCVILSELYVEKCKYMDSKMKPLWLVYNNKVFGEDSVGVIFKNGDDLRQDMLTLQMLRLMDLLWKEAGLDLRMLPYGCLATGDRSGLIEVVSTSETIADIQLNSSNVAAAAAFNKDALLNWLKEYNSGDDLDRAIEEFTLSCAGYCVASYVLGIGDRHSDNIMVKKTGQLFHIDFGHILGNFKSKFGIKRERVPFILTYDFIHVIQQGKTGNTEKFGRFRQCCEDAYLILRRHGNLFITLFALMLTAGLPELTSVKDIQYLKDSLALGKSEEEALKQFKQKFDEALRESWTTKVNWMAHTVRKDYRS
Chain of PI3K-α (p110α/p85α) (P42336 whole entry, species assumed): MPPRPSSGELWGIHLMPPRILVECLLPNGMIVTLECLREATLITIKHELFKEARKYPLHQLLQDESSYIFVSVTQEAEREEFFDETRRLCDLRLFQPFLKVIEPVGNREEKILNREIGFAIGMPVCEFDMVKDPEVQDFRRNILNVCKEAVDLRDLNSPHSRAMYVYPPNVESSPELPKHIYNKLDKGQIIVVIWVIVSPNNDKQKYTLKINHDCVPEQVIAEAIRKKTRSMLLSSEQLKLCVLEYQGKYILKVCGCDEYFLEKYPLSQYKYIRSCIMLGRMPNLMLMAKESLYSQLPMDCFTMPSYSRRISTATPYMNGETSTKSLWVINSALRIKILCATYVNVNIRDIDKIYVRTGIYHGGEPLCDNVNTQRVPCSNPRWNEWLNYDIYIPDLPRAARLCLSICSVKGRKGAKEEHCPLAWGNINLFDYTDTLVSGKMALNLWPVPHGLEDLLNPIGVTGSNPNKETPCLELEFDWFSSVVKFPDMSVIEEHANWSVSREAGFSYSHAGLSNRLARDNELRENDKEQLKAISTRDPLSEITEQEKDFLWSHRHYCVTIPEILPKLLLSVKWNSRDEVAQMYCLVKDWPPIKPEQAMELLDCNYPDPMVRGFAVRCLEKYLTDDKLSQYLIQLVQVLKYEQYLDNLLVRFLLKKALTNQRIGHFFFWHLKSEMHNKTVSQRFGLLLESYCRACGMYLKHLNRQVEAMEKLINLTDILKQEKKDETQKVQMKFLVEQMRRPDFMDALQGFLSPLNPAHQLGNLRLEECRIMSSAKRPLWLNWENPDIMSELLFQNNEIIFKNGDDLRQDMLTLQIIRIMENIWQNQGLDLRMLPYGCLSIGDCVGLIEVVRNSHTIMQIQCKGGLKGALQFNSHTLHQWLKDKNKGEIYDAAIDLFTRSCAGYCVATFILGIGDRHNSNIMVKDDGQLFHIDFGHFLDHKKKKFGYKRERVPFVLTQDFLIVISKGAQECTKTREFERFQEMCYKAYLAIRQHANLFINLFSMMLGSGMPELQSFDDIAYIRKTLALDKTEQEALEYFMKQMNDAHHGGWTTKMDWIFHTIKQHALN
Chain of PI3K-α (p110α/p85α) (P27986 whole entry partner, species assumed): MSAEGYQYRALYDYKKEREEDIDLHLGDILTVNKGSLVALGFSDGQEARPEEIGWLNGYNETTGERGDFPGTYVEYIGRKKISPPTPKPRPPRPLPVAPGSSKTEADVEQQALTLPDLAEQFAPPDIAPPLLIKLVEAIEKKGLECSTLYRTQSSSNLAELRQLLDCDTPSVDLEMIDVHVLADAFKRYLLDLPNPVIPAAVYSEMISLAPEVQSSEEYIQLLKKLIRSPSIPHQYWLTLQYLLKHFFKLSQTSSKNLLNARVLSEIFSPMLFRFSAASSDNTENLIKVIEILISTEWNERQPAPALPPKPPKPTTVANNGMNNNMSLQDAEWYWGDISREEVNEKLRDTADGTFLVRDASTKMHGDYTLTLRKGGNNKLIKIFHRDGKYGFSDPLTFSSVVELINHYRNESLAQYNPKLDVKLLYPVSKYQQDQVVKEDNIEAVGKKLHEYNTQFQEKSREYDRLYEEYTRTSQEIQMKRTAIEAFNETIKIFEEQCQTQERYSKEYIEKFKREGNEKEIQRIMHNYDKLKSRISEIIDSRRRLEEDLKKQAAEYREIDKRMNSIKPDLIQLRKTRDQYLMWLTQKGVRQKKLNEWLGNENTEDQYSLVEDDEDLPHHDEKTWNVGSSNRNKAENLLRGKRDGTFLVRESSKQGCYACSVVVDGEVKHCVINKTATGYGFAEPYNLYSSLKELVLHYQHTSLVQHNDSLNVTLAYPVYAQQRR
Chain of PI3K-γ (p110γ) (P48736 whole entry, species assumed): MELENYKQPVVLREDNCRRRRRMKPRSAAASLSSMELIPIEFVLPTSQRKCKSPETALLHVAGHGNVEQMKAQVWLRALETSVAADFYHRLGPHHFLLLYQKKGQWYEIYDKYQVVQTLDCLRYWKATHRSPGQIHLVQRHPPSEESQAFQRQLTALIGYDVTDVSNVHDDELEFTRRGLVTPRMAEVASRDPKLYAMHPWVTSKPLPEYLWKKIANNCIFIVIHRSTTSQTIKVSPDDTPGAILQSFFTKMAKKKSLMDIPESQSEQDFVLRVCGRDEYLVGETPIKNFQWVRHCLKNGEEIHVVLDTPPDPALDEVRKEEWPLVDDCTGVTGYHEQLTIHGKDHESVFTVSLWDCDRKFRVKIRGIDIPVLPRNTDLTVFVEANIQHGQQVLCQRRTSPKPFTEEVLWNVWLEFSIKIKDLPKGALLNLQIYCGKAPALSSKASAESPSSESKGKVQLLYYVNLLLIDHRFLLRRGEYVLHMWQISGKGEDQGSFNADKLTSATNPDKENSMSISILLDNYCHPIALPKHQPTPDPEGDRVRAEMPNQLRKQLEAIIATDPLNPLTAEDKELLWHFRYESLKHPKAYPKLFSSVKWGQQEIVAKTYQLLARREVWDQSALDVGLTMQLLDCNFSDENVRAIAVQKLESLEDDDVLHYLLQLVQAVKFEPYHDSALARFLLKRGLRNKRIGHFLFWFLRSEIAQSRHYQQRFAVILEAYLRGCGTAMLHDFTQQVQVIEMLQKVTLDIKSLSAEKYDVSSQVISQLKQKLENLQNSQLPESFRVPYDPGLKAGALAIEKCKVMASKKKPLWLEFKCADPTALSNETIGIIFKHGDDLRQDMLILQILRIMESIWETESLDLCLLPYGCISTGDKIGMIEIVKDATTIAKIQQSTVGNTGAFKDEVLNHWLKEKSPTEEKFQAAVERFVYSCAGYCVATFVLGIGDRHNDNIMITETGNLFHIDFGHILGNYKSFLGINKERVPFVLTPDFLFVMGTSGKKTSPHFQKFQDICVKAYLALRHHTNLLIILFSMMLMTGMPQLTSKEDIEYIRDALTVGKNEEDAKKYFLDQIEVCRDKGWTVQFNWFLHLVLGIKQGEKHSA
Chain of PI3K-δ (p110δ/p85α) (O00329 whole entry, species assumed): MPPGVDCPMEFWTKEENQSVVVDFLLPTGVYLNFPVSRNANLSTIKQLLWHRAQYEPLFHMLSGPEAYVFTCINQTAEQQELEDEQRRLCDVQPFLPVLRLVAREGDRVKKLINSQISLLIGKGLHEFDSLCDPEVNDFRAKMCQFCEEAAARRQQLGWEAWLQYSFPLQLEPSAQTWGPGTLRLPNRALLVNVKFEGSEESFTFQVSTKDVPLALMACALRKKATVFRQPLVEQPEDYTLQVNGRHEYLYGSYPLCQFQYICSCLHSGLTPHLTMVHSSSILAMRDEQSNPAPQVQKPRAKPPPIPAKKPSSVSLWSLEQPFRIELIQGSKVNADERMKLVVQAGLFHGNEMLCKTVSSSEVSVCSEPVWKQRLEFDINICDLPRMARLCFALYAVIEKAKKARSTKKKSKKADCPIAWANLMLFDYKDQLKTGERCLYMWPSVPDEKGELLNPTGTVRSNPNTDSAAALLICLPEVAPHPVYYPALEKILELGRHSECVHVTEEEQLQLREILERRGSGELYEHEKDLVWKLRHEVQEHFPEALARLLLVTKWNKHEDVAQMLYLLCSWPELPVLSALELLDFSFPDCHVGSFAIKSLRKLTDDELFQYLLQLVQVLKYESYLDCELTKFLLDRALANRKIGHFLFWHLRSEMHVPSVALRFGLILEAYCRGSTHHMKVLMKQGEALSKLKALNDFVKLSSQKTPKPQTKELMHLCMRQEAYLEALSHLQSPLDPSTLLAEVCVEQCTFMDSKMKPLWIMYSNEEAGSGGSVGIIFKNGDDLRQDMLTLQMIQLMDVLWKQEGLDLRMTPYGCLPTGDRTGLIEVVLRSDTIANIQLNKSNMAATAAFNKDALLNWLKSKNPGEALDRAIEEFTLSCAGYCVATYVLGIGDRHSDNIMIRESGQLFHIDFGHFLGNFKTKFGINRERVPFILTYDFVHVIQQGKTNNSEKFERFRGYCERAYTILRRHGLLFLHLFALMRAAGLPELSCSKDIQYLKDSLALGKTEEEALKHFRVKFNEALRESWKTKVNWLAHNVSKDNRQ
Chain of PI3K-δ (p110δ/p85α) (P27986 whole entry partner, species assumed): as the sequence (P27986 whole entry partner, species assumed) above
Description for PI3K-β: (§2) It is a universal, homogenous, high throughput screening (HTS) technology using a far-red, competitive fluorescence polarization immunoassay based on the detection of ADP to monitor the activity of enzymes that catalyze group transfer reactions. […] The reaction mixture was added into desired wells of a 96-well plate. The plate was sealed and incubated for 80 min at room temperature. • 2) Next, 25 uL ADP detection mix was added into each well. The plate was sealed again and incubated for 60 min at room temperature. Then fluorescence polarization was measured by Tecan Infinite F500 Reader.
as §1
Description for PI3K-γ (p110γ): as §2, §1
Description for PI3K-δ (p110δ/p85α): as §2, §1

With `CC(Nc1ncnc(N)c1C#N)c1cc2ncc(Cl)n2nc1-c1ccccc1` (racemic) [Compound 2, 4-amino-6-((1-(3-chloro-6-phenylimidazo[1,2-b]pyridazin-7-yl)ethyl)amino)pyrimidine-5-carbonitrile], the IC50 against PI3K-α (p110α/p85α) was > 1000 nM.

`C[C@H](Nc1ncnc2[nH]cnc12)c1cc2ncc(Cl)n2nc1-c1cccc(F)c1` [Compound 16]: the IC50 was > 1000 nM against PI3K-α (p110α/p85α), 3 nM on PI3K-δ (p110δ/p85α) and 326 nM at PI3K-γ (p110γ). Besides, the inhibition at 1 µM at PI3K-β was found to be 27.5%.

`C[C@H](Nc1ncnc(N)c1-c1nn[nH]n1)c1cc2ncc(Cl)n2nc1-c1ccccc1` [Compound 21, (S)—N^4-(1-(3-chloro-6-phenylimidazo[1,2-b]pyridazin-7-yl)ethyl)-5-(2H-tetrazol-5-yl)pyrimidine-4,6-diamine]: the inhibition at 1 µM on PI3K-α (p110α/p85α) (at 1 μM, read-out: PI3K-α IH % (inhibition rate)) was found to be 21.7%. Besides, the IC50 on PI3K-δ (p110δ/p85α) amounted to 6 nM; against PI3K-γ (p110γ), 424 nM.

On to `C[C@@H](c1cc2ncc(Cl)n2nc1-c1ccccc1)n1ccc2c(N)ncnc21` [Compound 27, (S)-7-(1-(3-chloro-6-phenylimidazo[1,2-b]pyridazin-7-yl)ethyl)-7H-pyrrolo[2,3-d]pyrimidin-4-amine], for which the inhibition at 1 µM came to 9.5% on PI3K-β and 24.9% on PI3K-γ (p110γ). The IC50 worked out at 25 nM against PI3K-δ (p110δ/p85α) and 565 nM in experiment [1] (setting [3]).

Consider `C[C@H](Nc1ncnc(N)c1C#N)c1cc2ncc(Cl)n2nc1-c1cc(F)cc(F)c1` [Compound 30, (S)-4-amino-6-((1-(3-chloro-6-(3,5-difluorophenyl)imidazo[1,2-b]pyridazin-7-yl)ethyl)amino)pyrimidine-5-carbonitrile], for which the IC50 at PI3K-β was 1040 nM; in experiment [2] (Ramos), 1 nM; against PI3K-δ (p110δ/p85α), 3 nM; against PI3K-γ (p110γ), 410 nM; in experiment [1] (Homo sapiens), 6 nM.

Consider `Cc1ccccc1-c1nn2c(Cl)cnc2cc1[C@H](C)Nc1ncnc(N)c1C#N` [Compound 31, (S)-4-amino-6-((1-(3-chloro-6-(o-tolyl)imidazo[1,2-b]pyridazin-7-yl)ethyl)amino)pyrimidine-5-carbonitrile], for which the IC50 at PI3K-β was 371 nM; in experiment [2] (setting [4]) it was 2 nM; at PI3K-δ (p110δ/p85α), 4 nM; against PI3K-γ (p110γ), 146 nM.

Take `Cc1nc(N)c(C#N)c(N[C@@H](C)c2cc3ncc(Cl)n3nc2-c2ccccc2)n1` [Compound 32]: the inhibition at 1 µM on PI3K-β worked out at 23.8%. Also, the 50% inhibitory concentration (IC50) in experiment [2] (setting [4]) stood at 20 nM; against PI3K-δ (p110δ/p85α) it was 15 nM; on PI3K-γ (p110γ), 243 nM.

With `C[C@H](Nc1ncnc(N)c1C#N)c1cc2ncc(Cl)n2nc1-c1cc(F)ccc1F` [Compound 35], the inhibition at 1 µM at PI3K-β was found to be 67.6%; on PI3K-γ (p110γ), 64.6%. Besides, the values for the IC50 (in experiment [2] (setting [4]); against PI3K-δ (p110δ/p85α)) were 13 nM and 4 nM, respectively.

`C[C@H](Nc1ncnc(N)c1C#N)c1cc2ncc(Cl)n2nc1-c1cccc(F)c1F` [Compound 36]: the IC50 at PI3K-β was 1310 nM; in experiment [2] (setting [4]) it was 1 nM; against PI3K-δ (p110δ/p85α), 3 nM; at PI3K-γ (p110γ) it was 243 nM.

With `C[C@H](Nc1ncnc(N)c1Cl)c1cc2ncc(Cl)n2nc1-c1ccccc1` [Compound 40], the concentration for half-maximal inhibition (IC50) against PI3K-β was 277 nM; in experiment [2] (setting [4]), 3 nM; against PI3K-δ (p110δ/p85α) it was 2 nM; against PI3K-γ (p110γ), > 333 nM.

Regarding `C[C@H](Nc1ncnc(N)c1C#N)c1cc2ncc(Cl)n2nc1-c1cccc(Cl)c1` [Compound 41], the IC50 against PI3K-β was 1330 nM; in experiment [2] (setting [4]), 12 nM; against PI3K-δ (p110δ/p85α), 3 nM; on PI3K-γ (p110γ) it was 499 nM; in experiment [1] (setting [3]), 18 nM.

In the case of `C[C@H](Nc1ncnc(N)c1C#N)c1cc2ncc(Cl)n2nc1-c1ccccc1C(F)(F)F` [Compound 45], the IC50 turned out to be 450 nM against PI3K-β, 3 nM in experiment [2] (setting [4]), 3 nM against PI3K-δ (p110δ/p85α) and 195 nM on PI3K-γ (p110γ).

For `C[C@H](Nc1ncnc(N)c1C#N)c1cc2ncc(Cl)n2nc1-c1cccc(S(C)(=O)=O)c1` [Compound 46], the IC50 was determined as 1320 nM against PI3K-β, 6 nM in experiment [2] (setting [4]), 4 nM at PI3K-δ (p110δ/p85α) and 50 nM against PI3K-γ (p110γ).

`C[C@H](Nc1ncnc(N)c1C#N)c1cc2ncc(Cl)n2nc1-c1cccc(C(F)(F)F)c1` [Compound 48]: the IC50 at PI3K-β turned out to be 4080 nM; in experiment [2] (setting [4]) it was 8 nM; against PI3K-δ (p110δ/p85α), 9 nM; against PI3K-γ (p110γ), 1330 nM; in experiment [1] (setting [3]), 41 nM.

Regarding `C[C@H](Nc1ncnc(N)c1C(N)=O)c1cc2ncc(Cl)n2nc1-c1ccccc1` [Compound 53, (S)-4-amino-6-((1-(3-chloro-6-phenylimidazo[1,2-b]pyridazin-7-yl)ethyl)amino)pyrimidine-5-carboxamide], the inhibition at 1 µM at PI3K-β amounted to 30.5%; on PI3K-γ (p110γ), 34.3%. Also, the IC50 in experiment [2] (setting [4]) was determined as 16 nM.

With `Cc1nc2cc([C@H](C)Nc3ncnc(N)c3C#N)c(-c3ccccc3)nn2c1Cl` [Compound 59], the IC50 was found to be 1160 nM against PI3K-β; 6 nM in experiment [2] (setting [4]); 5 nM at PI3K-δ (p110δ/p85α); 2390 nM against PI3K-γ (p110γ); 100 nM in experiment [1] (setting [3]).

Consider `C[C@H](Nc1ncnc(N)c1C#N)c1cc2ncc(Cl)n2nc1-c1ccc2cccnc2c1` [Compound 61], for which the inhibition at 1 µM at PI3K-β is 24.4%; on PI3K-γ (p110γ) it was 26.5%. For the same molecule, the IC50 in experiment [2] (setting [4]) is 41 nM; against PI3K-δ (p110δ/p85α), 7 nM; in experiment [1] (setting [3]) it was 109 nM.

Turning to `Cc1cccc(-c2nn3c(Cl)cnc3cc2[C@H](C)Nc2ncnc(N)c2C#N)c1` [Compound 62], the IC50 at PI3K-β is 1230 nM; in experiment [2] (setting [4]), 1 nM; against PI3K-δ (p110δ/p85α), 2 nM; against PI3K-γ (p110γ) it was 247 nM; in experiment [1] (setting [3]) it was 15 nM.

`C[C@H](Nc1ncnc(N)c1C#N)c1cc2ncc(Cl)n2nc1-c1ccc(Cl)c(F)c1` [Compound 64]: at PI3K-β, the inhibition at 1 µM was determined as 44.1%. In addition, the IC50 against PI3K-δ (p110δ/p85α) was 48 nM; against PI3K-γ (p110γ), > 333 nM.

As to `C[C@H](Nc1ncnc(N)c1C#N)c1cc2ncc(Cl)n2nc1-c1cccc(C#N)c1` [Compound 65], the IC50 against PI3K-β turned out to be 1260 nM; in experiment [2] (setting [4]), 2 nM; at PI3K-δ (p110δ/p85α) it was 2 nM; at PI3K-γ (p110γ), 611 nM; in experiment [1] (setting [3]) it was 14 nM.

In the case of `C[C@H](Nc1ncnc(N)c1C#N)c1cc2ncc(Cl)n2nc1-c1cc(F)cc(Cl)c1` [Compound 66], the IC50 at PI3K-β is 4300 nM; in experiment [2] (setting [4]), 2 nM; against PI3K-δ (p110δ/p85α), 9 nM; against PI3K-γ (p110γ) it was 1120 nM; in experiment [1] (setting [3]), 262 nM.

Take `Cc1cc(F)cc(-c2nn3c(Cl)cnc3cc2[C@H](C)Nc2ncnc(N)c2C#N)c1` [Compound 67]: the half-inhibitory concentration (IC50) against PI3K-β was 3580 nM; in experiment [2] (setting [4]) it was 3 nM; on PI3K-δ (p110δ/p85α), 5 nM; at PI3K-γ (p110γ) it was 1140 nM; in experiment [1] (setting [3]), 10 nM.

With `C[C@H](Nc1ncnc(N)c1C#N)c1cc2ncc(Cl)n2nc1-c1ccccc1S(C)(=O)=O` [Compound 68], the IC50 against PI3K-β is 963 nM; in experiment [2] (setting [4]), 1 nM; against PI3K-δ (p110δ/p85α), 2 nM; on PI3K-γ (p110γ), 345 nM; in experiment [1] (setting [3]) it was 2 nM.

Regarding `C[C@H](Nc1ncnc(N)c1C#N)c1cc2ncc(Cl)n2nc1-c1ccc2ccccc2c1` [Compound 71], the inhibition at 1 µM was 35.2% at PI3K-β and 32.6% at PI3K-γ (p110γ). Besides, half-maximal inhibition at PI3K-δ (p110δ/p85α) (IC50) was put at 129 nM.

With `C[C@H](Nc1ncnc(N)c1C#N)c1cc2ncc(Cl)n2nc1-c1cnn(C)c1` [Compound 72], the IC50 amounted to 89 nM against PI3K-β, 4 nM on PI3K-δ (p110δ/p85α) and 513 nM against PI3K-γ (p110γ).

On to `C[C@H](Nc1ncnc(N)c1C#N)c1cc2ncc(Cl)n2nc1-c1ccncc1` [Compound 73], for which the inhibition at 1 µM was 60.8% on PI3K-β and 62.8% at PI3K-γ (p110γ). For the same molecule, half-maximal inhibition against PI3K-δ (p110δ/p85α) (IC50) required 82 nM.

Take `C[C@H](Nc1ncnc(N)c1C#N)c1cc2ncc(Cl)n2nc1-c1ccc2scnc2c1` [Compound 74]: the values for the inhibition at 1 µM on PI3K-β and at PI3K-γ (p110γ) were 49.4% and 40.8%, respectively. Besides, the 50% inhibitory concentration (IC50) in experiment [2] (setting [4]) came out at 23 nM; on PI3K-δ (p110δ/p85α) it was 9 nM.

Take `C[C@@H](Nc1ncnc(N)c1C#N)c1cc2ncc(Cl)n2nc1-c1ccc2scnc2c1` [Compound 75]: the inhibition at 1 µM on PI3K-β is -7.1%; at PI3K-δ (p110δ/p85α), 1%; on PI3K-γ (p110γ), 31.7%.

For `C[C@H](Nc1ncnc(N)c1C#N)c1cc2ncc(Cl)n2nc1-c1ccc2ccn(C)c2c1` [Compound 76], the inhibition at 1 µM was 54.9% on PI3K-β, 48.9% at PI3K-δ (p110δ/p85α) and -14.3% at PI3K-γ (p110γ).

On to `C[C@H](Nc1ncnc(N)c1C#N)c1cc2ncc(Cl)n2nc1-c1cccnc1` [Compound 77], for which the IC50 at PI3K-β amounted to 238 nM; in experiment [2] (setting [4]) it was 3 nM; against PI3K-δ (p110δ/p85α), 2 nM; against PI3K-γ (p110γ), 436 nM.

`Cc1noc(-c2c(N)ncnc2N[C@@H](C)c2cc3ncc(Cl)n3nc2-c2ccccc2)n1` [Compound 82, (S)—N^4-(1-(3-chloro-6-phenylimidazo[1,2-b]pyridazin-7-yl)ethyl)-5-(3-methyl-1,2,4-oxadiazol-5-yl)pyrimidine-4,6-diamine]: at PI3K-β, the inhibition at 1 µM amounted to 55.2%. For the same molecule, the results for the IC50 on PI3K-δ (p110δ/p85α) and on PI3K-γ (p110γ) were 13 nM and 203 nM, respectively.
